In US20240210412A1, “SULFONYL-TRIAZOLE COMPOUNDS USEFUL AS LIGANDS AND INHIBITORS OF PROSTAGLANDIN REDUCTASE 2” (University of Virginia Patent Foundation, priority 2021, published 2024):

How the values were obtained:
Experiment in all cases: SILAC LC-MS ABPP
Type in all cases: cell-based
Settings in all cases: 25 μM 2 h, live DM93 cells
[1] = molecular target: T1, O95757 (Homo sapiens, UniProt O95757)
T1 construct: endogenous in cells; host or cells: DM93 cells (SILAC)
In short: (§1)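 First, heavy-labelled DM93 cells were exposed to SuTEx ligand (25 μM) and light cells to DMSO, 2 h at 37 °C. Second, HHS-475 (100 μM) was added for 2 h. Third, soluble lysates were clicked to desthiobiotin-azide, pooled 1:1, trypsin-digested, avidin-enriched and analysed by LC-MS/MS.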

[2] = molecular target: T2, P23588 (Homo sapiens, UniProt P23588)
T2 construct: Probe-modified proteins from the soluble fraction were conjugated to a desthiobiotin-azide tag; endogenous in cells; host or cells: DM93 (SILAC)
In short: as §1

[3] = molecular target: T3, Q6N069 (Homo sapiens, UniProt Q6N069)
T3 construct: performing SuTEx compound screening directly in cells; endogenous in cells; host or cells: DM93 cells (SILAC), soluble fraction
In short: as §1

[4] = molecular target: T4, Q7Z460 (Homo sapiens, UniProt Q7Z460)
T4 construct: endogenous in cells; host or cells: DM93 cells (SILAC), live-cell treatment
In short: as §1

[5] = molecular target: T5, Q92900 (Homo sapiens, UniProt Q92900)
T5 construct: endogenous in cells; host or cells: DM93 cells (SILAC), live-cell treatment
In short: as §1

[6] = molecular target: T6, P02794 (Homo sapiens, UniProt P02794)
T6 construct: endogenous in cells; host or cells: DM93 cells (SILAC)
In short: as §1

[7] = molecular target: T7, P39019 (Homo sapiens, UniProt P39019)
T7 construct: Probe-modified proteins from the soluble fraction were conjugated to a desthiobiotin-azide tag; endogenous in cells; host or cells: DM93 (SILAC)
In short: as §1

[8] = molecular target: T8, P62993 (Homo sapiens, UniProt P62993)
T8 construct: performing SuTEx compound screening directly in cells; endogenous in cells; host or cells: DM93 cells (SILAC)
In short: as §1

[9] = molecular target: T9, Q6ZSZ5 (Homo sapiens, UniProt Q6ZSZ5)
T9 construct: endogenous in cells; host or cells: DM93 cells (SILAC), live-cell treatment
In short: as §1

[10] = molecular target: T10, Q9BWT3 (Homo sapiens, UniProt Q9BWT3)
T10 construct: endogenous in cells; host or cells: DM93 cells (SILAC), treated live; soluble proteome analysed
In short: as §1

[11] = molecular target: T11, Q9C0C2 (Homo sapiens, UniProt Q9C0C2)
T11 construct: endogenous in cells; host or cells: DM93 cells (SILAC), treated live; soluble proteome analysed
In short: as §1

[12] = molecular target: T12, P15880 (Homo sapiens, UniProt P15880)
T12 construct: endogenous in cells; host or cells: DM93 cells (SILAC)
In short: as §1

[13] = molecular target: T13, P78527 (Homo sapiens, UniProt P78527)
T13 construct: performing SuTEx compound screening directly in cells; endogenous in cells; host or cells: DM93 cells (SILAC)
In short: as §1

[14] = molecular target: T14, Q13057 (Homo sapiens, UniProt Q13057)
T14 construct: performing SuTEx compound screening directly in cells; endogenous in cells; host or cells: DM93 cells (SILAC), soluble fraction
In short: as §1

[15] = molecular target: T15, O75351 (Homo sapiens, UniProt O75351)
T15 construct: endogenous in cells; host or cells: DM93
In short: as §1

[16] = molecular target: T16, P36507 (Homo sapiens, UniProt P36507)
T16 construct: endogenous in cells; host or cells: DM93 (SILAC)
In short: as §1

[17] = molecular target: T17, Q9H3P2 (Homo sapiens, UniProt Q9H3P2)
T17 construct: endogenous in cells; host or cells: DM93 cells (SILAC), treated live; soluble proteome analysed
In short: as §1

[18] = molecular target: T18, Q92620 (Homo sapiens, UniProt Q92620)
T18 construct: endogenous in cells; host or cells: DM93 cells (SILAC), live-cell treatment
In short: as §1

T5 sequence (Q92900 whole entry): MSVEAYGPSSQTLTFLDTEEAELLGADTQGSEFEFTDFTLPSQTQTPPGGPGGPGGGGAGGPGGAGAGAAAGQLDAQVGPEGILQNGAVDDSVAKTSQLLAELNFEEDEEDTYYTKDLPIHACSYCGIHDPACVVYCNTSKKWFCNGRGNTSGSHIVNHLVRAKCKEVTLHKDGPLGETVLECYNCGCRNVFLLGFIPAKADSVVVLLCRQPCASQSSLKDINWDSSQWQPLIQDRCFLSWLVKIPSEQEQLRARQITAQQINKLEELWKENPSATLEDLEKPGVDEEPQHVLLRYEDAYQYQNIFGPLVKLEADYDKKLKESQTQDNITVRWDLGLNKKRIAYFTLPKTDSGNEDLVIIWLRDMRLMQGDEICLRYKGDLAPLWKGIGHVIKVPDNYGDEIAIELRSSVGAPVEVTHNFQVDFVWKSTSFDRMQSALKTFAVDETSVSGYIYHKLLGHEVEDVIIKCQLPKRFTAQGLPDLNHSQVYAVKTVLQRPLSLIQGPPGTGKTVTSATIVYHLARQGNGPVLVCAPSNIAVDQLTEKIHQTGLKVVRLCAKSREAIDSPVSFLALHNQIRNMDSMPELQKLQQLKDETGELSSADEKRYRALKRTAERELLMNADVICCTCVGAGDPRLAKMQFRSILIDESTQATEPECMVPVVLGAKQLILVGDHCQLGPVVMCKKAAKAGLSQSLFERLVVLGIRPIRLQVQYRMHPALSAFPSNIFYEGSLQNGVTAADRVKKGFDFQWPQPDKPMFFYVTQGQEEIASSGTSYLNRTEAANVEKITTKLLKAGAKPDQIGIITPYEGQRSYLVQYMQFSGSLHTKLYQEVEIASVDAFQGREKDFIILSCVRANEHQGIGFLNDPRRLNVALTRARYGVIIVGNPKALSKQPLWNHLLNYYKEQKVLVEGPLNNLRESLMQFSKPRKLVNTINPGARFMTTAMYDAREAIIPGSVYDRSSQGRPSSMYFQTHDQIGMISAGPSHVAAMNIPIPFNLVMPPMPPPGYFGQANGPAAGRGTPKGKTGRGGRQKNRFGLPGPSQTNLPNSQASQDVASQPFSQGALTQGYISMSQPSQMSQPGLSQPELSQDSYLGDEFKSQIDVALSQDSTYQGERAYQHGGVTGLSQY
T10 sequence (Q9BWT3 whole entry): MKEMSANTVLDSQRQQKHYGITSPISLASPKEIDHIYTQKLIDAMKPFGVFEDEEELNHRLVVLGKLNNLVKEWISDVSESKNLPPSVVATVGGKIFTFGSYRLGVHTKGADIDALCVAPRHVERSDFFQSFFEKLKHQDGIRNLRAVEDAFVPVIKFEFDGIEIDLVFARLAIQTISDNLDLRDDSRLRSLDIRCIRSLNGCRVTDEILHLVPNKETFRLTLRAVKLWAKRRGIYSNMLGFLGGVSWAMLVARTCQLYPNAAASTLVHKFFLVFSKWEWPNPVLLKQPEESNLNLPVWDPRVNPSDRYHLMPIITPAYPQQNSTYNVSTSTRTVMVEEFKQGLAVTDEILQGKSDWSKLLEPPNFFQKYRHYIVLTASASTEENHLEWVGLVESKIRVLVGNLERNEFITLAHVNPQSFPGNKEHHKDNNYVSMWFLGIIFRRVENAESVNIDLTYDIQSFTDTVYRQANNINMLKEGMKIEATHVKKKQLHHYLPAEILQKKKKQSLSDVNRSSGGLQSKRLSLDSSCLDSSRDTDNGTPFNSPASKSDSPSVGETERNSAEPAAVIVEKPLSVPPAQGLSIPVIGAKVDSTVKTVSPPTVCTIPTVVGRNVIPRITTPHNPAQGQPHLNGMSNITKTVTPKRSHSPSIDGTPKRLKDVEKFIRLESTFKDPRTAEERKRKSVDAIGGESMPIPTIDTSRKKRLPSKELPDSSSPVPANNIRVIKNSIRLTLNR
T15 sequence (O75351 whole entry): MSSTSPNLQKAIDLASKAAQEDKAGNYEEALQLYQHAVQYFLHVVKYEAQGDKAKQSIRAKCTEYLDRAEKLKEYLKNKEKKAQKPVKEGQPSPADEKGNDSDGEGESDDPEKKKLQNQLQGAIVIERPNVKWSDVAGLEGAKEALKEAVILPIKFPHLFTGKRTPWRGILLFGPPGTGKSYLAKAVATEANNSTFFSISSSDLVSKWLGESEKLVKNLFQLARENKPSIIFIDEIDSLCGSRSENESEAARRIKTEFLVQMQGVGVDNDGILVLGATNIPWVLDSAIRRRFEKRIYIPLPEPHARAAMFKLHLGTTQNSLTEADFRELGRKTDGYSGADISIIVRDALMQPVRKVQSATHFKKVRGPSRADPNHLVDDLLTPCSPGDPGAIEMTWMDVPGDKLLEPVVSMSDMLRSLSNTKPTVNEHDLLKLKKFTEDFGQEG
T3 sequence (Q6N069 whole entry): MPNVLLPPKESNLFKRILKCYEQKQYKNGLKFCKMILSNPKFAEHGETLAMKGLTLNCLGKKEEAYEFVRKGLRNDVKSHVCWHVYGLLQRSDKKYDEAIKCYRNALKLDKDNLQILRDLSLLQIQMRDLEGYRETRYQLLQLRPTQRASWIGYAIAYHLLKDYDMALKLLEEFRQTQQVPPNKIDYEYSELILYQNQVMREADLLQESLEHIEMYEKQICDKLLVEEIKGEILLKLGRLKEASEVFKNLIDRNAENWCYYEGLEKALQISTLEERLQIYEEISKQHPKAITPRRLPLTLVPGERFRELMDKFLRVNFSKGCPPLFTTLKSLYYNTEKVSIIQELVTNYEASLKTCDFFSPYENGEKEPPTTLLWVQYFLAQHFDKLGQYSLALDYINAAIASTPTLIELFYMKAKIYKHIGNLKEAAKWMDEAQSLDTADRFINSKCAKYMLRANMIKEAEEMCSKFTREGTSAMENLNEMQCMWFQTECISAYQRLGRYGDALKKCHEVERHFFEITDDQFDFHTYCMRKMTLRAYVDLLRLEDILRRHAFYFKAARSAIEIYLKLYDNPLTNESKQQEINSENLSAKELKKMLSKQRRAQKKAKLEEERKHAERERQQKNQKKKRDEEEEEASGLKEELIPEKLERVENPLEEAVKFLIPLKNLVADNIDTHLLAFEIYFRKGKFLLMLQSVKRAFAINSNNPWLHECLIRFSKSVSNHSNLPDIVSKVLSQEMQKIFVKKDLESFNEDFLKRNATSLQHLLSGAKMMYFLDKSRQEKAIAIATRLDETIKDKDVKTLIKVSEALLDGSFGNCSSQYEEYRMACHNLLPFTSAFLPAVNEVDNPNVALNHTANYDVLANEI
T17 sequence (Q9H3P2 whole entry): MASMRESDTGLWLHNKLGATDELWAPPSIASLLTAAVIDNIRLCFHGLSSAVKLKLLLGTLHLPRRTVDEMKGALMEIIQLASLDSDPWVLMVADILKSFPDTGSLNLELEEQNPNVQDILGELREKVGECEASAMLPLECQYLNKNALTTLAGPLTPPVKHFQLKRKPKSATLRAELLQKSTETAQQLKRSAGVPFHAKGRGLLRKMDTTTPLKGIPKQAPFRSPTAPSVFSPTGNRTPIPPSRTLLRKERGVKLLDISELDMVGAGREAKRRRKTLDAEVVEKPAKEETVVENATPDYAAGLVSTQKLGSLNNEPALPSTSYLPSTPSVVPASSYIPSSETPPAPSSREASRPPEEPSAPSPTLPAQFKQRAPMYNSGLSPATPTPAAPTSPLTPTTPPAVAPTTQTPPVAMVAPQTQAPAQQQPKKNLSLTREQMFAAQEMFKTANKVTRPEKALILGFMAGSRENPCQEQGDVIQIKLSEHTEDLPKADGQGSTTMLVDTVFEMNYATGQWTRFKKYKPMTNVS
T9 sequence (Q6ZSZ5 whole entry): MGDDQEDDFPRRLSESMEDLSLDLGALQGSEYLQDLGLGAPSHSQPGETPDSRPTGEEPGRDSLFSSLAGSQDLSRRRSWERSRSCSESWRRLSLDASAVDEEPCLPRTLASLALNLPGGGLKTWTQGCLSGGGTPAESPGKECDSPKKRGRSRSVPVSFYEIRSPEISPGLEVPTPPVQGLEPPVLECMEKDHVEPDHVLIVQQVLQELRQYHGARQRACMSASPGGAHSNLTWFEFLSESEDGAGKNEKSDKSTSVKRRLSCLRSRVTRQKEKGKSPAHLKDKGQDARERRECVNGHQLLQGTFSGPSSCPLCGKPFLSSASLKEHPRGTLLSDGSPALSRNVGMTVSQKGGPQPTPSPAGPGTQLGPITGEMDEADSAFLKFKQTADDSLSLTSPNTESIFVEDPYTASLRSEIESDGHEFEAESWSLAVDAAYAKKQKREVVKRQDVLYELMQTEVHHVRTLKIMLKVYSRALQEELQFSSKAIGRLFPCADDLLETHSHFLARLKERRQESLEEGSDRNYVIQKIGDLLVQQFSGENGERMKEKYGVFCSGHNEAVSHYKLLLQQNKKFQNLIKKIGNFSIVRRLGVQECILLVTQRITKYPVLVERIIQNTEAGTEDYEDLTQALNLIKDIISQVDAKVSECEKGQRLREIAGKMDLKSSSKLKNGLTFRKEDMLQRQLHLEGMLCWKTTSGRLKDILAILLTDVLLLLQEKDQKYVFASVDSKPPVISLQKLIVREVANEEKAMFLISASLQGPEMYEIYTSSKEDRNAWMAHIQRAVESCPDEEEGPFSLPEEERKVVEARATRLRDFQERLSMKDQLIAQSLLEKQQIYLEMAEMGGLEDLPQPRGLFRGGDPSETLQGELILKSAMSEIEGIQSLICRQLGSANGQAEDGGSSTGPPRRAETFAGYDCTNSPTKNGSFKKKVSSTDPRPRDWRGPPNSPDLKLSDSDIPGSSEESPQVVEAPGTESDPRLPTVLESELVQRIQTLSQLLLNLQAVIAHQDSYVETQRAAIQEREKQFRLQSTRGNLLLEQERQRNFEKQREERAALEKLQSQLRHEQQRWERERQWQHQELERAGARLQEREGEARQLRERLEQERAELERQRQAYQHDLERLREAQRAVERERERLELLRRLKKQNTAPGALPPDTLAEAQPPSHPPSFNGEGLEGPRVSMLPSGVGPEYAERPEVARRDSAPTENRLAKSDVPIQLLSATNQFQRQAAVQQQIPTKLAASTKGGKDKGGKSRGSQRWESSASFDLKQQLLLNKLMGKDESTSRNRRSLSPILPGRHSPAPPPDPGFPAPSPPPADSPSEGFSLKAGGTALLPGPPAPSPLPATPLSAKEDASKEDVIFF

O=C(NC1CC1)c1ccc(S(=O)(=O)n2cncn2)cc1 [HHS-0101, 4-((1H-1,2,4-triazol-1-yl)sulfonyl)-N-cyclopropylbenzamide]
liganded tyrosine site 639 [1]: HHS0101.Y|HHS0301.Y|HHS0401.Y (tyrosine sites that showed >80% reductions (SR >5) in probe labeling in cells treated with compounds (liganded sites)) | liganded tyrosine site 258 [2]: HHS0101.Y (tyrosine sites that showed >80% reductions (SR >5) in probe labeling in cells treated with compounds (liganded sites)) | liganded tyrosine site 86 [3]: HHS0101.Y|HHS0701.Y (tyrosine sites that showed >80% reductions (SR >5) in probe labeling in cells treated with compounds (liganded sites)) | liganded tyrosine site 1267 [4]: HHS0101.Y|HHS0301.Y|HHS0401.Y (tyrosine sites that showed >80% reductions (SR >5) in probe labeling in cells treated with compounds (liganded sites)) | liganded tyrosine site 518 [5]: HHS0101.Y|HHS0201.Y|HHS0401.Y|HHS0701.Y (tyrosine sites that showed >80% reductions (SR >5) in probe labeling in cells treated with compounds (liganded sites)) | liganded tyrosine site 946 [5]: HHS0101.Y (tyrosine sites that showed >80% reductions (SR >5) in probe labeling in cells treated with compounds (liganded sites))

O=C(NCC1CC1)c1ccc(S(=O)(=O)n2cncn2)cc1 [HHS-0201, 4-((1H-1,2,4-triazol-1-yl)sulfonyl)-N-(cyclopropylmethyl)benzamide]
liganded tyrosine site 13 [6]: HHS0201.Y (tyrosine sites that showed >80% reductions (SR >5) in probe labeling in cells treated with compounds (liganded sites)) | liganded tyrosine site 54 [7]: HHS0201.Y (tyrosine sites that showed >80% reductions (SR >5) in probe labeling in cells treated with compounds (liganded sites)) | liganded tyrosine site 160 [8]: HHS0201.Y (tyrosine sites that showed >80% reductions (SR >5) in probe labeling in cells treated with compounds (liganded sites)) | liganded tyrosine site 1012 [9]: HHS0201.Y (tyrosine sites that showed >80% reductions (SR >5) in probe labeling in cells treated with compounds (liganded sites)) | liganded tyrosine site 326 [10]: HHS0201.Y|HHS0701.Y (tyrosine sites that showed >80% reductions (SR >5) in probe labeling in cells treated with compounds (liganded sites)) | liganded tyrosine site 897 [11]: HHS0201.Y|HHS0301.Y|HHS0401.Y|HHS0701.Y (tyrosine sites that showed >80% reductions (SR >5) in probe labeling in cells treated with compounds (liganded sites))

O=C(NC1CCCCC1)c1ccc(S(=O)(=O)n2cncn2)cc1 [HHS-0301, 4-((1H-1,2,4-triazol-1-yl)sulfonyl)-N-cyclohexylbenzamide]
liganded tyrosine site 250 [12]: HHS0301.Y (tyrosine sites that showed >80% reductions (SR >5) in probe labeling in cells treated with compounds (liganded sites)) | liganded tyrosine site 701 [13]: HHS0301.Y (tyrosine sites that showed >80% reductions (SR >5) in probe labeling in cells treated with compounds (liganded sites)) | liganded tyrosine site 126 [14]: HHS0301.Y (tyrosine sites that showed >80% reductions (SR >5) in probe labeling in cells treated with compounds (liganded sites))

O=C(NCc1ccccc1)c1ccc(S(=O)(=O)n2cncn2)cc1 [HHS-0401, 4-((1H-1,2,4-triazol-1-yl)sulfonyl)-N-benzylbenzamide]
liganded tyrosine site 47 [15]: HHS0401.Y (tyrosine sites that showed >80% reductions (SR >5) in probe labeling in cells treated with compounds (liganded sites)) | liganded tyrosine site 244 [16]: HHS0401.Y (tyrosine sites that showed >80% reductions (SR >5) in probe labeling in cells treated with compounds (liganded sites)) | liganded tyrosine site 324 [17]: HHS0401.Y|HHS0701.Y (tyrosine sites that showed >80% reductions (SR >5) in probe labeling in cells treated with compounds (liganded sites))

O=C(c1ccc(S(=O)(=O)n2cncn2)cc1)N1CCC(c2ccccc2)CC1 [HHS-0701, (4-((1H-1,2,4-triazol-1-yl)sulfonyl)phenyl)(4-phenylpiperidin-1-yl)methanone]
liganded tyrosine site 261 [18]: HHS0701.Y (tyrosine sites that showed >80% reductions (SR >5) in probe labeling in cells treated with compounds (liganded sites))
